Our source for the class values is patent US20050197350A1, “Novel quinoline, tetrahydroquinazoline, and pyrimidine derivatives and methods of treatment related to the use thereof” (TAISHO PHARMACEUTICAL CO., LTD., priority 2003, published 2005).

In the assay the test system is MCH receptors. Put plainly: MCH receptor activity class (method not given).
[1] abbreviates: MCH receptor, class by percent of control at 10^-7 M or IC50.
[2] abbreviates: activity class 1-3: percent of control at 10^-7 M or IC50.
[3] abbreviates: MCH receptor activity class 1-3 (percent of control at 10^-7 M or IC50).
Setting [4] is: class by percent of control at 10^-7 M or IC50.
The mark [5] stands for this setting: class by percent of control at 10^−7 M or IC50.

Consider `CN(C)c1cc(N[C@H]2CC[C@@H](NC(=O)c3csc(-c4cccs4)n3)CC2)nc2ccccc12` [compound 146, N-(cis-4-{[4-(dimethylamino)quinolin-2-yl]amino}cyclohexyl)-2-(2-thienyl)-1,3-thiazole-4-carboxamide], for which, under setting [1], the class is on record as 1 (Class 1: The value of percent of control at 10^−7 M was less than 40% or the value of IC50 was less than 50 nM.).

Consider `COCCOC(=O)NC[C@H]1CC[C@@H](Nc2nccc(N(C)C)n2)CC1` [compound 1645], for which, under setting [2], the class is listed as 3 (Class 3 The value of percent of control at 10^−7 M was more than 60% or the value of IC50 was more than 200 nM.).

On to `CN(C)c1cc(N[C@H]2CC[C@@H](NC(=O)CC3CCCC3)CC2)nc2ccccc12` [compound 75], for which the class under setting [1] is 3 (Class 3 The value of percent of control at 10^−7 M was more than 60% or the value of IC50 was more than 200 nM.).

Take `C=C(C)c1cccc(C(C)(C)NC(=O)N[C@H]2CC[C@@H](Nc3nc4c(c(N(C)C)n3)CCCC4)CC2)c1` [compound 1698]: under setting [2], the class is reported as 3 (Class 3 The value of percent of control at 10^−7 M was more than 60% or the value of IC50 was more than 200 nM.).

As to `CCc1ccccc1NC(=O)NC[C@H]1CC[C@@H](Nc2nc3c(c(N(C)C)n2)CCCC3)CC1` [compound 2469], the class under setting [3] was 3 (Class 3 The value of percent of control at 10^−7 M was more than 60% or the value of IC50 was more than 200 nM.).

With `COc1ccc(CNC[C@H]2CC[C@@H](Nc3nccc(N(C)C)n3)CC2)c(OC)c1` [compound 1252], the class under setting [4] is 2 (Class 2: The value of percent of control at 10^−7 M was from 40% to 60% or the value of IC′50 was from 50 nM to 200 nM.).

As to `CN(C)c1cc(N[C@H]2CC[C@@H](NC(=O)C(c3ccc(Cl)cc3)c3ccc(Cl)cc3)CC2)nc2ccccc12` [compound 686], the class under setting [4] is on record as 2 (Class 2: The value of percent of control at 10^−7 M was from 40% to 60% or the value of IC′50 was from 50 nM to 200 nM.).

As to `COc1cccc(OC)c1CNC[C@H]1CC[C@@H](Nc2nc3c(c(N(C)C)n2)CCCC3)CC1` [compound 1364], under setting [4], the class is given as 1 (Class 1: The value of percent of control at 10^−7 M was less than 40% or the value of IC50 was less than 50 nM.).

On to `CN(C)c1nc(N[C@H]2CC[C@@H](NC(=O)Nc3ccc([N+](=O)[O-])cc3Cl)CC2)nc2c1CCCC2` [compound 1854], for which the class under setting [4] is given as 3 (Class 3 The value of percent of control at 10^−7 M was more than 60% or the value of IC50 was more than 200 nM.).

Turning to `COc1ccc(CCCCNC[C@H]2CC[C@@H](Nc3nccc(N(C)C)n3)CC2)cc1` [compound 1525], the class under setting [2] is listed as 3 (Class 3 The value of percent of control at 10^−7 M was more than 60% or the value of IC50 was more than 200 nM.).

On to `Cc1c(Cl)cccc1NC(=O)NC[C@H]1CC[C@@H](Nc2nc3c(c(N(C)C)n2)CCCC3)CC1` [compound 2477], for which the class under setting [3] is given as 2 (Class 2: The value of percent of control at 10^−7 M was from 40% to 60% or the value of IC′50 was from 50 nM to 200 nM.).

With `COC(=O)c1sccc1NC(=S)N[C@H]1CC[C@@H](Nc2nc3c(c(N(C)C)n2)CCCC3)CC1` [compound 1792], the class under setting [4] is given as 3 (Class 3 The value of percent of control at 10^−7 M was more than 60% or the value of IC50 was more than 200 nM.).

Regarding `Cc1cc(C)c(NC(=O)Nc2ccc(OC(F)(F)F)cc2)c(C(=O)N[C@H]2CC[C@@H](Nc3cc(N(C)C)c4ccccc4n3)CC2)c1` [compound 718], the class under setting [4] is 3 (Class 3 The value of percent of control at 10^−7 M was more than 60% or the value of IC50 was more than 200 nM.).

For `CN(C)c1nc(N[C@H]2CC[C@@H](NC(=S)Nc3cccc4ccccc34)CC2)nc2c1CCCC2` [compound 1744], under setting [4], the class is 3 (Class 3 The value of percent of control at 10^−7 M was more than 60% or the value of IC50 was more than 200 nM.).

For the compound `Cc1cnc(N[C@H]2CC[C@@H](NC(=O)c3ccc(Cl)cc3)CC2)nc1N(C)C` [compound 2907, 4-chloro-N-(cis-4-{[4-(dimethylamino)-5-methylpyrimidin-2-yl]amino}cyclohexyl)benzamide], the class under setting [5] was 1 (Class 1: The value of percent of control at 10^−7 M was less than 40% or the value of IC50 was less than 50 nM.).

For the compound `Cc1cnc(N[C@H]2CC[C@@H](NC(=O)c3ccccc3)CC2)nc1N(C)C` [compound 2904, N-(cis-4-{[4-(dimethylamino)-5-methylpyrimidin-2-yl]amino}cyclohexyl)benzamide], under setting [5], the class was 2 (Class 2: The value of percent of control at 10^−7 M was from 40% to 60% or the value of IC′50 was from 50 nM to 200 nM.).

Consider `CN(C)c1cc(N[C@H]2CC[C@@H](NC(=O)c3cc(C(C)(C)C)c(O)c(C(C)(C)C)c3)CC2)nc2ccccc12` [compound 787], for which, under setting [4], the class is given as 3 (Class 3 The value of percent of control at 10^−7 M was more than 60% or the value of IC50 was more than 200 nM.).

In the case of `Cc1ccc(C(=O)CC(C(=O)N[C@H]2CC[C@@H](Nc3cc(N(C)C)c4ccccc4n3)CC2)c2cn(C)c3ccccc23)cc1` (relative stereo) [compound 722], under setting [4], the class was 3 (Class 3 The value of percent of control at 10^−7 M was more than 60% or the value of IC50 was more than 200 nM.).

Regarding `CCOC(=O)[C@H](CC(C)C)NC(=O)NC[C@H]1CC[C@@H](Nc2cc(N(C)C)c3ccccc3n2)CC1` (relative stereo) [compound 2363], the class under setting [3] is given as 3 (Class 3 The value of percent of control at 10^−7 M was more than 60% or the value of IC50 was more than 200 nM.).

For `CN(C)c1nc(N[C@H]2CC[C@@H](CNC(=O)c3ccccc3I)CC2)nc2c1CCCC2` [compound 657], the class under setting [4] is reported as 3 (Class 3 The value of percent of control at 10^−7 M was more than 60% or the value of IC50 was more than 200 nM.).

“N-cyclopropyl-N′-(cis-4-{[4-(dimethylamino)-5,6,7,8-tetrahydroquinazolin-2-yl]amino}cyclohexyl)thiourea [compound 2028]”: under setting [1], the class is listed as 3 (Class 3 The value of percent of control at 10^−7 M was more than 60% or the value of IC50 was more than 200 nM.).

In the case of `CCOC(=O)c1cccc(NC(=S)N[C@H]2CC[C@@H](Nc3cc(N(C)C)c4ccccc4n3)CC2)c1` [compound 2293], the class under setting [3] is 3 (Class 3 The value of percent of control at 10^−7 M was more than 60% or the value of IC50 was more than 200 nM.).

For the compound `CCc1cccc(CC)c1NC(=O)N[C@H]1CC[C@@H](Nc2nccc(N(C)C)n2)CC1` [compound 2192], the class under setting [4] is given as 3 (Class 3 The value of percent of control at 10^−7 M was more than 60% or the value of IC50 was more than 200 nM.).

`CCc1cccc2c(C(CC(=O)c3ccc(C(C)(C)C)cc3)C(=O)N[C@H]3CC[C@@H](Nc4cc(N(C)C)c5ccccc5n4)CC3)c[nH]c12` (relative stereo) [compound 720]: the class under setting [4] is 3 (Class 3 The value of percent of control at 10^−7 M was more than 60% or the value of IC50 was more than 200 nM.).

For the compound `COc1ccccc1OC(=O)N[C@H]1CC[C@@H](Nc2cc(N(C)C)c3ccccc3n2)CC1` [compound 1544], the class under setting [2] is 3 (Class 3 The value of percent of control at 10^−7 M was more than 60% or the value of IC50 was more than 200 nM.).

Consider `Cc1cccc(Cl)c1NC(=O)N[C@H]1CC[C@@H](Nc2cc(N(C)C)c3ccccc3n2)CC1` [compound 2104], for which the class under setting [4] is 3 (Class 3 The value of percent of control at 10^−7 M was more than 60% or the value of IC50 was more than 200 nM.).

Regarding `Cc1cc(C(=O)N[C@H]2CC[C@@H](Nc3nccc(N(C)C)n3)CC2)ccc1Br` [compound 275, 4-bromo-N-(cis-4-{[4-(dimethylamino)pyrimidin-2-yl]amino}cyclohexyl)-3-methylbenzamide], the class under setting [4] is reported as 1 (Class 1: The value of percent of control at 10^−7 M was less than 40% or the value of IC50 was less than 50 nM.).

Consider `CCCCC/C(=C\c1ccccc1)CN[C@H]1CC[C@@H](Nc2cc(N(C)C)c3ccccc3n2)CC1` [compound 1111], for which the class (activity class per percent of control at 10^-7 M or IC50) is given as 3 (Class 3 The value of percent of control at 10^−7 M was more than 60% or the value of IC50 was more than 200 nM.).

Turning to `Cc1cc2occ(CN[C@H]3CC[C@@H](Nc4nccc(N(C)C)n4)CC3)c(=O)c2cc1Cl` [compound 1228], under setting [4], the class was 3 (Class 3 The value of percent of control at 10^−7 M was more than 60% or the value of IC50 was more than 200 nM.).

For the compound `CC(C)c1ccccc1NC(=O)NC[C@H]1CC[C@@H](Nc2nccc(N(C)C)n2)CC1` [compound 2426], under setting [3], the class is on record as 3 (Class 3 The value of percent of control at 10^−7 M was more than 60% or the value of IC50 was more than 200 nM.).

Take `COc1cc(NC(=O)N[C@H]2CC[C@@H](Nc3nc4c(c(N(C)C)n3)CCCC4)CC2)cc(OC)c1OC` [compound 1719]: the class under setting [4] is reported as 1 (Class 1: The value of percent of control at 10^−7 M was less than 40% or the value of IC50 was less than 50 nM.).

As to `Cc1cc(Br)ccc1NC(=S)N[C@H]1CC[C@@H](Nc2nc3c(c(N(C)C)n2)CCCC3)CC1` [compound 1764, N-(4-bromo-2-methylphenyl)-N′-(cis-4-{[4-(dimethylamino)-5,6,7,8-tetrahydroquinazolin-2-yl]amino}cyclohexyl)thiourea], the class under setting [4] was 1 (Class 1: The value of percent of control at 10^−7 M was less than 40% or the value of IC50 was less than 50 nM.).

On to `Cc1cc(NC(=O)NC[C@H]2CC[C@@H](Nc3cc(N(C)C)c4ccccc4n3)CC2)c(C(F)(F)F)o1` [compound 2392], for which the class under setting [3] is 3 (Class 3 The value of percent of control at 10^−7 M was more than 60% or the value of IC50 was more than 200 nM.).

With `CN(C)c1cc(N[C@H]2CC[C@@H](NC(=O)NCc3ccc(Br)cc3)CC2)nc2ccccc12` [compound 2153], under setting [4], the class is 3 (Class 3 The value of percent of control at 10^−7 M was more than 60% or the value of IC50 was more than 200 nM.).

In the case of `Cc1cccc(C(C)C)c1NC(=O)NC[C@H]1CC[C@@H](Nc2cc(N(C)C)c3ccccc3n2)CC1` [compound 2379], under setting [3], the class was 2 (Class 2: The value of percent of control at 10^−7 M was from 40% to 60% or the value of IC′50 was from 50 nM to 200 nM.).
